Reference: patent publication US20060205772A1, “Amide derivatives and their use as inhibitors of 11-beta-hydroxysteroid dehydrogenase type I” (priority 2003, published 2006)

Columns and labels:
cellular 11β-HSD1 = target: T1, cellular 11β-HSD1 (Rattus norvegicus, UniProt P16232); assay: inhibition of cellular 11β-HSD1 activity in primary rat hepatocytes; format: cell-based; details: 2 h incubation
T1 construct: Enzyme activity is measured in the medium of primary cultures of rat hepatocytes 48 h after plating the cells; endogenous in cells; host or cells: primary hepatocytes of male Sprague-Dawley rats
Method: The inhibition of cellular 11β-HSD1 activity in primary rat hepatocytes is determined as follows:
Male Sprague-Dawley rats weighing 180-200 g are anesthetized with sodium pentobarbital (65 mg/kg). The liver is perfused in situ with calcium-free Earl's Balanced Salt Solution (EBSS) followed by EBSS containing 100-150 U/mL of collagenase, 1.8 mM CaCl2 and 10 mM HEPES, pH 7.4. The perfused liver is removed and aseptically placed in warm William's Medium E containing 10% BCS. After decapsulation, the organ is transferred to fresh medium and gently shaken to facilitate tissue dissociation and cell release. Hepatocytes are separated from nonparenchymal and dead cells by repeated low speed centrifugation. Cell viability is determined by trypan blue exclusion.
Hepatocytes are plated on collagen coated dishes at a density of 1×10^5 cells/cm^2 in William's medium E containing 10% BCS, 100 U/mL penicillin, 100 μg/mL streptomycin, 0.25 μg/mL amphotericin B, 2 mM L-glutamine, 10 mM HEPES, 100 nM insulin and 1 nM dexamethasone. After 1 h the medium is changed to serum-free William's medium E supplemented as described above. Thereafter, the medium is replaced every 24 h. The cultures are maintained in a humidified atmosphere of 5% CO2 at 37° C.
Enzyme activity is measured in the medium of primary cultures of rat hepatocytes 48 h after plating the cells. The medium is aspirated and replaced with serum-free William's medium E containing 2 nM [^3H]11-dehydrocorticosterone and a test compound and is incubated for 2 h. An aliquot of culture medium is removed at the end of the incubation and the mixture is extracted with 2 volumes of ethyl acetate, dried under vacuum and resuspended in methanol. The dissolved residues are quantitatively transferred to thin layer plates and developed in chloroform-methanol (90:10). The TLC plates are scanned on a Bioscan imaging detector and the fractional conversion of 11-dehydrocorticosterone to corticosterone is calculated. The cell layer is rinsed with cold phosphate-buffered saline and dissolved in 0.1 N NaOH/5% SDS for the determination of cellular protein (BCA, Pierce, Rockford, Ill.). Enzyme activity is expressed as pmoles of product formed per mg protein per hour.

[1] = target: T2, human recombinant 11β-HSD1 (Homo sapiens, UniProt P28845); assay: in vitro inhibition of human recombinant 11β-HSD1 (Pichia pastoris microsomes, [3H]cortisone to [3H]cortisol); format: biochemical; details: recombinant human 11β-HSD1 microsomes, 500 nM cortisone mixture, NADPH, 90 min at 37° C.
T2 construct: made in house; host or cells: Pichia pastoris (microsomal fraction)
Method: The in vitro inhibition of human recombinant 11β-HSD1 is determined as follows:
Recombinant human 11β-HSD1 is expressed in yeast Pichia pastoris. Cultures are grown at 30° C. for 3 days in the presence of methanol to induce enzyme expression. The microsomal fraction overexpressing 11β-HSD1 is prepared from the cell homogenate and used as the enzyme source for primary screening. A test compound at the desired concentration is preincubated for 10 min at RT with 3 μg of the microsomal protein in 50 mM sodium phosphate, pH 7.5, in a total volume of 80 μL. The enzyme reaction is initiated by adding 20 μL of a mixture containing 5 mM NADPH, 500 nM cortisone, and 80,000 dpm of [^3H]cortisone in the same buffer and is terminated by ethyl acetate after incubation for 90 min at 37° C. The production of [^3H]cortisol is quantitated upon separation from [^3H]cortisone by a C18 column on HPLC equipped with a radioactivity detector. Glycerrhetinic acid, a known inhibitor of 11β-HSD1, is used as a standard.

human 11β-HSD2 = target: T3, human 11β-HSD2 (Homo sapiens, UniProt P80365); assay: in vitro inhibition of human 11β-HSD2 (SW-620 cell lysates, [3H]cortisol to [3H]cortisone); format: biochemical
T3 construct: using lysates of SW-620 cells as the enzyme source; host or cells: SW-620 human colon carcinoma cells (lysate)
T3 sequence (P80365 1-405): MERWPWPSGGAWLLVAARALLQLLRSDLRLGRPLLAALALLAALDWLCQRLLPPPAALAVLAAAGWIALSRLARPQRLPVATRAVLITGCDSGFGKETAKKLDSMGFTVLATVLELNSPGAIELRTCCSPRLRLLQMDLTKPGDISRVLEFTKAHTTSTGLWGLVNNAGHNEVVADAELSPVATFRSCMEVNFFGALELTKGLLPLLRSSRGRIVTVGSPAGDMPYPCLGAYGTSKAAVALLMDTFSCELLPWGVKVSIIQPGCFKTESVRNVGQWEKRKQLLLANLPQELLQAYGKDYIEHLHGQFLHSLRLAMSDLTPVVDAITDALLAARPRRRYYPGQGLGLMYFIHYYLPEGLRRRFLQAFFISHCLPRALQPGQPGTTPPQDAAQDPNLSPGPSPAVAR
Method: The in vitro inhibition of human 11β-HSD2 is determined as follows:
The SW-620 human colon carcinoma cell line is obtained from the American Type Culture Collection (ATCC). Cells are plated at a density of 8-10×10^4 cells/cm^2 in DMEM/F12 containing 5% BCS, 100 U/mL penicillin, 100 μg/mL streptomycin and […] amphotericin B. Cultures are grown to 80-90% confluence in a humidified, atmosphere of 5% CO2 at 37° C. The medium is changed to serum-free, phenol red-free DMEM/F12 at 24 h before harvesting the cells.
After 24 h in serum-free medium, cultured SW-620 cells are rinsed and scraped in Kreb's-Ringer buffer, pH 7.4, containing 1 mM EDTA, 2 μg/mL aprotinin, 10 μM leupeptin and 1 μM pepstatin. After sonication (30 seconds) and low speed centrifugation (2,000 rpm, 5 min) to remove cellular debris, the supernatant is collected and used to determine enzyme activity and protein concentration (BCA, Pierce, Rockford, Ill.).
Dehydrogenase activity is quantified by measuring the conversion of [^3H]cortisol to [^3H]cortisone using lysates of SW-620 cells as the enzyme source. The assay is performed in tubes containing Kreb's-Ringer buffer pH 7.4, with 0.20 mM NAD and 200,000 dpm of [^3H]cortisol and a test compound in a total volume of 1 mL. The tubes are preincubated for 10 min at 37° C. before adding 200 μg of cell lysates to start the reaction. After incubation for 1 h at 37° C. in a shaking water bath, the mixture is extracted with 2 volumes of ethyl acetate and centrifuged for 10 min at 2,000 rpm. The organic layer is collected, dried under vacuum and resuspended in methanol. The dissolved residues are quantitatively transferred to thin layer plates and developed in chloroform-methanol (90:10). Unlabeled cortisol and cortisone were used as reference markers. The TLC plates are scanned on a Bioscan radioimaging detector (Bioscan, Washington, D.C.), and the fractional conversion of cortisol to cortisone is calculated. Enzyme activity is expressed as pmoles of product formed per mg protein per hour. Carbenoxolone and glycyrrhetinic acid are used as standards.

[2] = system: corticosterone production in adrenalectomized (ADX) mice; assay: inhibition of corticosterone production in adrenalectomized (ADX) mice; format: in vivo; details: Mus musculus, po; ADX CD1 mice, orally 25 mg/kg each at 2 and 4 h before sacrifice; liver corticosterone
Method: Inhibition of corticosterone production in adrenalectomized (ADX) mice is determined as follows:
Bilateral adrenalectomy is performed in male mice of the CD1 strain (6 to 8 weeks of age, 25-30 g body weight) through a lumbar laparotomy. After 10 days the animals are fasted for 24 h. Compounds are administered orally at 25 mg/kg each at 2 and 4 h before sacrifice. A second group of animals receives carbenoxolone at the same dose, and a third group receives the vehicle (cornstarch). Homogenized liver samples are used to measure corticosterone concentration which is determined by radioimmunoassay and is expressed as pg of corticosterone per mg of liver protein.

T2 sequence (P28845 whole entry): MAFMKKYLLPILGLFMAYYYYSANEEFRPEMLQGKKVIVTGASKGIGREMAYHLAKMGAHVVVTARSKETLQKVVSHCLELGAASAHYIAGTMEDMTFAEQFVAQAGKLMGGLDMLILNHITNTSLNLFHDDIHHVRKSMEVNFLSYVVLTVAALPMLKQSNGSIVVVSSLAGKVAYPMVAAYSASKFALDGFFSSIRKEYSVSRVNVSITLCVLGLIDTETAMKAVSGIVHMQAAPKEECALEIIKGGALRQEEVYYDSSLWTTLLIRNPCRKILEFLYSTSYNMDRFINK
T1 sequence (P16232 whole entry): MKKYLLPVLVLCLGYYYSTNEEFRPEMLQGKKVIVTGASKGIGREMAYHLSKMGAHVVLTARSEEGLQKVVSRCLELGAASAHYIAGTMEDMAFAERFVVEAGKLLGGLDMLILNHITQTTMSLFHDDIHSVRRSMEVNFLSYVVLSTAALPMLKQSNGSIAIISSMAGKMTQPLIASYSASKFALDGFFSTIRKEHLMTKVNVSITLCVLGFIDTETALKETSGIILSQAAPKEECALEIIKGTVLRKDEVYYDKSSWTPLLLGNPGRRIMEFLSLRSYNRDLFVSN

Compound | inhibition at 1 µM (cellular 11β-HSD1) [%] | IC50 [1] [µM] | inhibition at 10 µM (human 11β-HSD2) [%] | change in vivo at 25 mg/kg [2] [%]
COc1cccc(NC(=O)Nc2ccc(C(=O)N3CCC[C@H]4CCCC[C@H]43)c(OC)c2)c1 [Example 13-4] | 53 | 0.042 | 44 | -70
O=C(Nc1ccc(C(=O)N2CCC[C@@H]3CCCC[C@@H]32)cc1)c1ccc(F)cc1 [Example 11-13] | 90 | 0.563 | 2 | -73
Cn1c(C(=O)N2CCC[C@@H]3CCCC[C@H]32)cc2ccccc21 (relative stereo) [Example 38, (1-Methyl-1H-indol-2-yl)-(4aS*,8aR*)-octahydro-1(2H)-quinolin-1-yl-methanone] | 49 | 0.18 | 10 | -62
COc1ccccc1CNC(=O)c1ccc(C(=O)N2CCC[C@@H]3CCCC[C@@H]32)cc1 [Example 23-47] | 71 | 2.12 | 49 | -61

Further compounds by falling IC50 [1], results first:

inhibition at 1 µM (cellular 11β-HSD1) [%] | IC50 [1] [µM] | inhibition at 10 µM (human 11β-HSD2) [%] | Compound | change in vivo at 25 mg/kg [2] [%]
80 | 1 | 26 | CN(CC1CCCCC1)C(=O)c1ccc(NC(=O)c2ccc(F)cc2)cc1Cl [Example 3-11] | -69
75 | 0.77 | 29 | COC(=O)Nc1ccc(C(=O)N2CC[C@H]3CCCC[C@H]3C2)c(OC)c1 [Example 48-37] | -69
84 | 0.262 | 45 | O=C(NCc1ccc(F)cc1)N1CCc2cc(C(=O)N3CCC[C@H]4CCCC[C@H]43)ccc21 [Example 33-21] | -71
76 | 0.0077 | 34 | O=C(c1ccc(-c2ccccc2[N+](=O)[O-])o1)N1CCC[C@@H]2CCCC[C@@H]21 [Example 35-15] | -67
54 | 0.0065 | 11 | CC1=C(C(=O)N(C)CC23CC4CC(CC(C4)C2)C3)Cc2ccccc21 [Example 8-6] | -57
